The structures appear in SMILES notation.

The target in assay [1] is SMARCA2 (Homo sapiens, UniProt P51531). Description: HiBit assay in engineered HT1080 CRISPR knock-in cell, 6 hrs (B series), SMARCA2. It is filed as cell-based. The following applies: 6 hrs incubation; for DC50: HT1080 CRISPR knock-in cells, read-out: SMARC A2 HT1080 HiBit DC50; for Dmax: HT-1080, HT1080 CRISPR knock-in cells, read-out: SMARC A2 HT1080 HiBit Dmax (%). In outline: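 Remaining SMARCA2 protein measured as HiBiT luminescence after cell lysis with LgBiT plus lytic substrate. Engineered HT1080 knock-in cells (2000/well) were first treated 6 h at 37 °C with compound at a final 0.1% DMSO.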
Sequence of SMARCA2 (P51531 whole entry): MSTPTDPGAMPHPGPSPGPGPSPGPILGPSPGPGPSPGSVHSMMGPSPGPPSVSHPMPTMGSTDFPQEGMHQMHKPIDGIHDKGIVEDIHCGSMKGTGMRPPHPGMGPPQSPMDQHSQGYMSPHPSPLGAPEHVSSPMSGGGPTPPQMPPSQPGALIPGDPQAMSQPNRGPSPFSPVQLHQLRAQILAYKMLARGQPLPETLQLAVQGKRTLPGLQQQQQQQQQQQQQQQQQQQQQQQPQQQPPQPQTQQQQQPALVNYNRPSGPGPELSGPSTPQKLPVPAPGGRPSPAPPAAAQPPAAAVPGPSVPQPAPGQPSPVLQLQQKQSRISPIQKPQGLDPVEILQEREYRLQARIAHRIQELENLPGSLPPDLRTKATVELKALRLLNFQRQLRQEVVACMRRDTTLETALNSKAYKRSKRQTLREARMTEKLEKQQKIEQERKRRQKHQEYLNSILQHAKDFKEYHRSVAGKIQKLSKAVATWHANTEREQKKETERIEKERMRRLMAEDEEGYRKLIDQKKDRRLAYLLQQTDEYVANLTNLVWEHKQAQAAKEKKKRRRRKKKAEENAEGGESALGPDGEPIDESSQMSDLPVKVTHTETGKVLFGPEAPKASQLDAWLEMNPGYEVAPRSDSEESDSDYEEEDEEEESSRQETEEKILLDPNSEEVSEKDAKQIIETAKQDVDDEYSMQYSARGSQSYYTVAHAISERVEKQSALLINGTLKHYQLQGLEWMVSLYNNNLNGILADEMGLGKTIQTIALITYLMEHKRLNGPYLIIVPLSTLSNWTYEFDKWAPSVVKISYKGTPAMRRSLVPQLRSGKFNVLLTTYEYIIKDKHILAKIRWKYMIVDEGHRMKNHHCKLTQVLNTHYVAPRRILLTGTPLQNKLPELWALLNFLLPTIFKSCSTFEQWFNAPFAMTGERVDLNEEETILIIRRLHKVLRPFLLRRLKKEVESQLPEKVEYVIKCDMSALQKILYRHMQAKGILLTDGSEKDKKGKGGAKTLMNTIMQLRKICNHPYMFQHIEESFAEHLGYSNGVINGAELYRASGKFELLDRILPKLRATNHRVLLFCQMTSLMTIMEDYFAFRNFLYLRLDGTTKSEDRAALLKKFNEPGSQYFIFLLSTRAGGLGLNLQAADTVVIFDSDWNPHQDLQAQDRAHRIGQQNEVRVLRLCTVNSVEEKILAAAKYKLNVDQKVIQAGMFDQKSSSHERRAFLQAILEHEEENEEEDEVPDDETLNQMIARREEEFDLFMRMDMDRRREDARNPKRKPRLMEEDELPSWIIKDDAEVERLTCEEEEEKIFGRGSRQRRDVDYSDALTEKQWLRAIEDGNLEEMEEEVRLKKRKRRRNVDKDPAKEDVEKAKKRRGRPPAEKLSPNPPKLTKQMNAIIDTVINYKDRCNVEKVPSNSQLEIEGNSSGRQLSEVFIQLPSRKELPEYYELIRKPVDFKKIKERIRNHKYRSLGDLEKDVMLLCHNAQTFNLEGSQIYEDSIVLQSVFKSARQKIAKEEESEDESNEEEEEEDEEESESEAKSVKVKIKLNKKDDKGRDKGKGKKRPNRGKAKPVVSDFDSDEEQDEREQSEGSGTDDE
(In general: The HiBiT peptide binds its large partner to form an active luciferase.)

Assay [2] deals with SMARCA4 (Homo sapiens, UniProt P51532). Description: HiBit assay in engineered HT1080 CRISPR knock-in cell, 6 hrs (B series), SMARCA4. It is filed as cell-based. The conditions noted are these: 6 hrs incubation; for DC50: HT1080 CRISPR knock-in cells, read-out: SMARC A4 HT1080 HiBit DC50; for Dmax: HT-1080, HT1080 CRISPR knock-in cells, read-out: SMARC A4 HT1080 HiBit Dmax(%). In outline:
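HT1080 CRISPR knock-in cells carrying the HiBiT tag were seeded onto compounds (final DMSO 0.1%) and incubated 6 hrs at 37° C, 5% CO2. Remaining tagged protein was detected by lytic HiBiT luminescence after adding LgBiT protein and substrate, with LgBiT-free wells serving as negative control.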

Sequence of SMARCA4 (P51532 whole entry): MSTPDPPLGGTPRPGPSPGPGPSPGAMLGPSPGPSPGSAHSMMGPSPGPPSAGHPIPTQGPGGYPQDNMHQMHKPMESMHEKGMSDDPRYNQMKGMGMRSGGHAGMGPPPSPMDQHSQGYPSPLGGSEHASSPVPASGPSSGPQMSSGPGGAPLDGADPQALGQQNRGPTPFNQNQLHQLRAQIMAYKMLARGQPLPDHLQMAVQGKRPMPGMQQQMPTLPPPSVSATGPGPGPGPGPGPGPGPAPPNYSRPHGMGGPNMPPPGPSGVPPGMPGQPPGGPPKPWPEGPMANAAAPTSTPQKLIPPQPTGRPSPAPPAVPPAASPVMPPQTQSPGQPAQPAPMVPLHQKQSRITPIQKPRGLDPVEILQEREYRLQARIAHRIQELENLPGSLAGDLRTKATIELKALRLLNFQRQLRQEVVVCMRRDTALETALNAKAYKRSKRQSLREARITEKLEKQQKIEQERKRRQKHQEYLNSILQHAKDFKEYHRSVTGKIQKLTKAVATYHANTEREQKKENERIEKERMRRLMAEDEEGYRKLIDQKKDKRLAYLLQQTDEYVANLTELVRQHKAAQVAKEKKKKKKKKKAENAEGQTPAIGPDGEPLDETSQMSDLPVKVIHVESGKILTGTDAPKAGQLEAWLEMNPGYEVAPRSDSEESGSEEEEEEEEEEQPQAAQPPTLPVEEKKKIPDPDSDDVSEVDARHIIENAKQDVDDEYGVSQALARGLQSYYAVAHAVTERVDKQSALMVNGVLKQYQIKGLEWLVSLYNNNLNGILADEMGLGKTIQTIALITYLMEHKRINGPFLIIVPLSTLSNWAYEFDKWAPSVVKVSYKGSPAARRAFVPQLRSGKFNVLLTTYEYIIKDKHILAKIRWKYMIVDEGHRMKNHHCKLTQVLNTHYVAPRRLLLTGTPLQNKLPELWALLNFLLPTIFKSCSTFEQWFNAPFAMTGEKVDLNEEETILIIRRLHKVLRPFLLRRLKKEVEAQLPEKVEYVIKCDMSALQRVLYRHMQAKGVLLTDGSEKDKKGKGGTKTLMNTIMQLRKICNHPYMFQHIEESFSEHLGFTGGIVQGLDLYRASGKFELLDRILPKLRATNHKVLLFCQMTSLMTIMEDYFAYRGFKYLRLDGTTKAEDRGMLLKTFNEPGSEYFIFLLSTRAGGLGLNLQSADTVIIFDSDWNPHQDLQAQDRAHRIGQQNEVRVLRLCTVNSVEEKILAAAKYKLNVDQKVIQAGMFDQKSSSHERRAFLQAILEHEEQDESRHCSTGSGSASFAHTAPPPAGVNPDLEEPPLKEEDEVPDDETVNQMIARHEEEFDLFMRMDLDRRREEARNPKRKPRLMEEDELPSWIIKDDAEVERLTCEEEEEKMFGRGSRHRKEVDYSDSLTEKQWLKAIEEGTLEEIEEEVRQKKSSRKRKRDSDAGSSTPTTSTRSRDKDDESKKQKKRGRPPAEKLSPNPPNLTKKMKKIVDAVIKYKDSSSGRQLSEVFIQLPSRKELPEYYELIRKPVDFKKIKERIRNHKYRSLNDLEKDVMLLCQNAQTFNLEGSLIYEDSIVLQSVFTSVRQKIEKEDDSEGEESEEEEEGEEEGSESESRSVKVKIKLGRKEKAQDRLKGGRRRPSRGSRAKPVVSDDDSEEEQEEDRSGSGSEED

On to `Cc1ncsc1-c1ccc([C@H](CC(=O)NC2CCC(N3CCC(c4ccc5c(c4)-n4c(nc(=O)c6c(Cl)cccc64)C5(C)C)CC3)CC2)NC(=O)[C@@H]2C[C@@H](O)CN2C(=O)[C@@H](NC(=O)C2(F)CC2)C(C)(C)C)cc1` (stereo partly drawn) [Compound B31, (2S,4R)—N—((S)-3-((4-(4-(4-chloro-7,7-dimethyl-5-oxo-5,7-dihydroindolo[1,2-a]quinazolin-10-yl)piperidin-1-yl)cyclohexyl)amino)-1-(4-(4-methylthiazol-5-yl)phenyl)-3-oxopropyl)-1-((S)-2-(1-fluorocyclopropane-1-carboxamido)-3,3-dimethylbutanoyl)-4-hydroxypyrrolidine-2-carboxamide], for which, in assay [1], the DC50 was 100 to 500 nM and the Dmax fell in the range of 70 to 90%. In assay [2], the DC50 is 100 to 500 nM and the Dmax was less than 50%.

On to `Cc1ncsc1-c1ccc([C@H](C)NC(=O)[C@@H]2C[C@@H](O)CN2C(=O)[C@@H](c2cc(OCCN3CCC(c4ccc5c(c4)-n4c(nc(=O)c6c(Cl)cccc64)C5(C)C)CC3)no2)C(C)C)cc1` [Compound B32, (2S,4R)-1-((R)-2-(3-(2-(4-(4-chloro-7,7-dimethyl-5-oxo-5,7-dihydroindolo[1,2-a]quinazolin-10-yl)piperidin-1-yl)ethoxy)isoxazol-5-yl)-3-methylbutanoyl)-4-hydroxy-N-((S)-1-(4-(4-methylthiazol-5-yl)phenyl)ethyl)pyrrolidine-2-carboxamide], for which, in assay [1], the DC50 is less than 100 nM and the Dmax is more than 90%. For the same compound, in assay [2], the DC50 was less than 100 nM and the Dmax is less than 50%.

For `Cc1ncsc1-c1ccc([C@H](CC(=O)NCCCCN2CCC(c3ccc4c(c3)-n3c(nc(=O)c5c(Cl)cccc53)C4(C)C)CC2)NC(=O)[C@@H]2C[C@@H](O)CN2C(=O)[C@@H](NC(=O)C2(F)CC2)C(C)(C)C)cc1` [Compound B33, (2S,4R)—N—((S)-3-((4-(4-(4-chloro-7,7-dimethyl-5-oxo-5,7-dihydroindolo[1,2-a]quinazolin-10-yl)piperidin-1-yl)butyl)amino)-1-(4-(4-methylthiazol-5-yl)phenyl)-3-oxopropyl)-1-((S)-2-(1-fluorocyclopropane-1-carboxamido)-3,3-dimethylbutanoyl)-4-hydroxypyrrolidine-2-carboxamide], in assay [1], the DC50 is more than 1000 nM and the Dmax was less than 50%. For the same compound, in assay [2], the DC50 is more than 1000 nM and the Dmax is less than 50%.

`Cc1ncsc1-c1ccc(CNC(=O)[C@@H]2C[C@@H](O)CN2C(=O)[C@@H](NC(=O)C2(F)CC2)C(C)(C)C)c(OCCN2CCC(c3ccc4c(c3)-n3c(nc(=O)c5c(Cl)cccc53)C4(C)C)CC2)c1` [Compound B34, (2S,4R)-N-(2-(2-(4-(4-chloro-7,7-dimethyl-5-oxo-5,7-dihydroindolo[1,2-a]quinazolin-10-yl)piperidin-1-yl)ethoxy)-4-(4-methylthiazol-5-yl)benzyl)-1-((S)-2-(1-fluorocyclopropane-1-carboxamido)-3,3-dimethylbutanoyl)-4-hydroxypyrrolidine-2-carboxamide]: in assay [1], the DC50 was less than 100 nM and the Dmax was more than 90%. In addition, in assay [2], the DC50 is less than 100 nM and the Dmax is more than 90%.

For the compound `Cc1ncsc1-c1ccc(CNC(=O)[C@@H]2C[C@@H](O)CN2C(=O)[C@@H](NC(=O)C2(F)CC2)C(C)(C)C)c(OCCCCN2CCC(c3ccc4c(c3)-n3c(nc(=O)c5c(Cl)cccc53)C4(C)C)CC2)c1` [Compound B35, (2S,4R)—N-(2-(4-(4-(4-chloro-7,7-dimethyl-5-oxo-5,7-dihydroindolo[1,2-a]quinazolin-10-yl)piperidin-1-yl)butoxy)-4-(4-methylthiazol-5-yl)benzyl)-1-((S)-2-(1-fluorocyclopropane-1-carboxamido)-3,3-dimethylbutanoyl)-4-hydroxypyrrolidine-2-carboxamide], in assay [1], the DC50 was less than 100 nM and the Dmax was more than 90%. In assay [2], the DC50 was less than 100 nM and the Dmax was more than 90%.

For the compound `Cc1ncsc1-c1ccc([C@H](C)NC(=O)[C@@H]2C[C@@H](O)CN2C(=O)[C@H](C(C)C)n2cc(CCN3CCC(c4ccc5c(c4)-n4c(nc(=O)c6c(Cl)cccc64)C5(C)C)CC3)nn2)cc1` [Compound B36, (2S,4R)-1-((S)-2-(4-(2-(4-(4-chloro-7,7-dimethyl-5-oxo-5,7-dihydroindolo[1,2-a]quinazolin-10-yl)piperidin-1-yl)ethyl)-1H-1,2,3-triazol-1-yl)-3-methylbutanoyl)-4-hydroxy-N-((S)-1-(4-(4-methylthiazol-5-yl)phenyl)ethyl)pyrrolidine-2-carboxamide], in assay [1], the DC50 was less than 100 nM and the Dmax was 70 to 90%. Further, in assay [2], the DC50 is less than 100 nM and the Dmax was less than 50%.

As to `Cc1ncsc1-c1ccc([C@H](C)NC(=O)[C@@H]2C[C@@H](O)CN2C(=O)[C@@H](c2cc(N3CCC(CN4CCC(c5ccc6c(c5)-n5c(nc(=O)c7c(Cl)cccc75)C6(C)C)CC4)CC3)no2)C(C)C)cc1` [Compound B37, (2S,4R)-1-((R)-2-(3-(4-((4-(4-chloro-7,7-dimethyl-5-oxo-5,7-dihydroindolo[1,2-a]quinazolin-10-yl)piperidin-1-yl)methyl)piperidin-1-yl)isoxazol-5-yl)-3-methylbutanoyl)-4-hydroxy-N-((S)-1-(4-(4-methylthiazol-5-yl)phenyl)ethyl)pyrrolidine-2-carboxamide], the DC50 in assay [1] and in assay [2] was less than 100 nM throughout. The Dmax in assay [1] is more than 90%; in assay [2] it was 70 to 90%.

As for `Cc1ncsc1-c1ccc([C@H](C)NC(=O)[C@@H]2C[C@@H](O)CN2C(=O)[C@@H](c2cc(OC3CCC(CN4CCC(c5ccc6c(c5)-n5c(nc(=O)c7c(Cl)cccc75)C6(C)C)CC4)CC3)no2)C(C)C)cc1` (stereo partly drawn) [Compound B38, (2S,4R)-1-((R)-2-(3-((4-((4-(4-chloro-7,7-dimethyl-5-oxo-5,7-dihydroindolo[1,2-a]quinazolin-10-yl)piperidin-1-yl)methyl)cyclohexyl)oxy)isoxazol-5-yl)-3-methylbutanoyl)-4-hydroxy-N-((S)-1-(4-(4-methylthiazol-5-yl)phenyl)ethyl)pyrrolidine-2-carboxamide], in assay [1], the DC50 is less than 100 nM and the Dmax is more than 90%. In addition, in assay [2], the DC50 was less than 100 nM and the Dmax fell in the range of 70 to 90%.

On to `Cc1ncsc1-c1ccc(CNC(=O)[C@@H]2C[C@@H](O)CN2C(=O)[C@@H](NC(=O)C2(F)CC2)C(C)(C)C)c(OCCCN2CCC(c3ccc4c(c3)-n3c(nc(=O)c5c(Cl)cccc53)C4(C)C)CC2)c1` [Compound B39, (2S,4R)-N-(2-(3-(4-(4-chloro-7,7-dimethyl-5-oxo-5,7-dihydroindolo[1,2-a]quinazolin-10-yl)piperidin-1-yl)propoxy)-4-(4-methylthiazol-5-yl)benzyl)-1-((S)-2-(1-fluorocyclopropane-1-carboxamido)-3,3-dimethylbutanoyl)-4-hydroxypyrrolidine-2-carboxamide], for which, in assay [1], the DC50 is less than 100 nM and the Dmax is more than 90%. In assay [2], the DC50 is less than 100 nM and the Dmax is more than 90%.

As for `Cc1ncsc1-c1ccc([C@H](C)NC(=O)[C@@H]2C[C@@H](O)CN2C(=O)[C@@H](NC(=O)[C@H]2CC[C@H](CN3CCC(c4ccc5c(c4)-n4c(nc(=O)c6c(Cl)cccc64)C5(C)C)CC3)CC2)C(C)(C)C)cc1` [Compound B40, (2S,4R)-1-((S)-2-((1r,4S)-4-((4-(4-chloro-7,7-dimethyl-5-oxo-5,7-dihydroindolo[1,2-a]quinazolin-10-yl)piperidin-1-yl)methyl)cyclohexane-1-carboxamido)-3,3-dimethylbutanoyl)-4-hydroxy-N-((S)-1-(4-(4-methylthiazol-5-yl)phenyl)ethyl)pyrrolidine-2-carboxamide], the DC50 is less than 100 nM in assay [1] and 100 to 500 nM in assay [2]. The Dmax in assay [1] is more than 90%; in assay [2], less than 50%.

In the case of `Cc1ncsc1-c1ccc([C@H](C)NC(=O)[C@@H]2C[C@@H](O)CN2C(=O)[C@H](C(C)C)n2cc([C@H]3CC[C@H](CN4CCC(c5ccc6c(c5)-n5c(nc(=O)c7c(Cl)cccc75)C6(C)C)CC4)CC3)nn2)cc1` [Compound B41, (2S,4R)-1-((S)-2-(4-((1r,4S)-4-((4-(4-chloro-7,7-dimethyl-5-oxo-5,7-dihydroindolo[1,2-a]quinazolin-10-yl)piperidin-1-yl)methyl)cyclohexyl)-1H-1,2,3-triazol-1-yl)-3-methylbutanoyl)-4-hydroxy-N-((S)-1-(4-(4-methylthiazol-5-yl)phenyl)ethyl)pyrrolidine-2-carboxamide], in assay [1], the DC50 is less than 100 nM and the Dmax was more than 90%. In assay [2], the DC50 was less than 100 nM and the Dmax was in the range of 70 to 90%.

In the case of `Cc1ncsc1-c1ccc([C@H](C)NC(=O)[C@@H]2C[C@@H](O)CN2C(=O)C(c2cc(N3CCC(c4ccc5c(c4)C(C)(C)c4nc(=O)c6c(Cl)cccc6n4-5)CC3)no2)C(C)C)cc1` (stereo partly drawn) [Compound B42, (2S,4R)-1-(2-(3-(4-(4-chloro-7,7-dimethyl-5-oxo-5,7-dihydroindolo[1,2-a]quinazolin-9-yl)piperidin-1-yl)isoxazol-5-yl)-3-methylbutanoyl)-4-hydroxy-N—((S)-1-(4-(4-methylthiazol-5-yl)phenyl)ethyl)pyrrolidine-2-carboxamide], in assay [1], the DC50 is less than 100 nM and the Dmax was more than 90%. In assay [2], the DC50 was less than 100 nM and the Dmax was 70 to 90%.

(Values after patent publication US20260092071A1, “COMPOUNDS AND COMPOSITIONS AS SMARCA2/4 DEGRADERS AND USES THEREOF” (REGENTS OF THE UNIVERSITY OF MICHIGAN, priority 2022, published 2026).)
